Results from the METLIN SMRT retention time set (Domingo-Almenara et al. 2019).

experiment: gradient 5% acetonitrile 3 min, to 50% in 2 min, to 85% in 15 min, held 3 min, 100 µL/min; details: column: Zorbax Extend-C18 2.1 x 50 mm; eluents: water / acetonitrile, 0.1% formic acid
Outline: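 Data were gathered over 3 months by HPLC coupled to a quadrupole time-of-flight mass spectrometer, operated in positive and negative ionization mode. Mixtures of ~100 pure standards ran on a Zorbax Extend-C18 column (2.1 × 50 mm, 1.8 μm) at 100 μL/min, with water and acetonitrile each containing 0.1% formic acid and dead and dwell volumes of 40 μL and 900 μL. Retention time was read from adduct peaks picked by computer and checked manually.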

RP-LC retention time [s]	SMILES
680	Nc1cc(C2CCN(C(=O)c3ccc(F)c(F)c3)CC2)no1
829	Cc1cc(C)c(NS(=O)(=O)c2ccc(Cl)c(C(=O)O)c2)c(C)c1
1030	Cc1ccc(CNC(=O)C(C)Oc2cc(C(F)(F)F)c3c(C)nn(C)c3n2)cc1 (stereo not drawn)
840	CCn1cc(-c2nc(CC(=O)NCc3ccccc3)cs2)c2cccnc21
684	COc1cc(NC(=O)C2=C(C)OCCS2)c(Cl)cc1C(=O)N1CCN(C2CCCCC2)CC1
690	O=C(c1ccc(OCC2CCCN(C(=O)c3ccoc3)C2)cc1)N1CCOCC1 (stereo not drawn)
717	CC(=O)N1CCc2cc(N3CC(C(=O)Nc4cc(C)ccc4C)CC3=O)ccc21 (stereo not drawn)
727	CCCC(=O)Nc1ccc2c(c1)CN(C(=O)c1ccc(F)c(Cl)c1)C(C(=O)N(C)C)C2 (stereo not drawn)
897	COc1ccc(Cc2nc3nccc(-c4ccsc4)n3n2)cc1
708	COc1ccc(Cl)cc1S(=O)(=O)N1CCCC(Cn2cnc3cccnc32)C1 (stereo not drawn)
981	COc1cccc(-c2noc(CN3C(=O)COc4ccc(C)cc43)n2)c1OC
1100	CCOC(=O)CCC(=O)N1CCC(Oc2nc3c(C)ccc(C)c3s2)CC1
938	Cc1ccc(-c2noc(CSc3nccn3-c3ccccc3)n2)cc1
919	COC(=O)C1=CN(c2ccc(Cl)cc2)c2cc(F)ccc2S1(=O)=O
1010	Cc1ccc(C(=O)N2CCN(c3ccc(-c4noc(C5CC5)n4)cc3)CC2)s1
827	COc1ccc(OC)c(CNC(=O)C2CCCN(c3ccc(=O)n(-c4cccc(F)c4)n3)C2)c1 (stereo not drawn)
653	CCS(=O)(=O)Nc1ccc2nc(N3CCN(c4ccc(F)cc4)CC3)cc(C(=O)O)c2c1
612	Cc1ccc(NC(=O)N2CCc3nc[nH]c3C2)cc1Cl

RP-LC retention time [s]	SMILES
613	Cc1cnc(C2CC2)n1CCNS(=O)(=O)c1ccccc1Cl
811	CC(=O)N1CCc2cc(CNS(=O)(=O)c3ccc(Cl)cc3)ccc21
1090	COC1CCC12CCN(S(=O)(=O)c1ccc(C)c(F)c1)CC2 (stereo not drawn)
556	CCN1CCCC1CNC(=O)C1c2ccccc2C(=O)N(CCOC)C1c1cccs1 (stereo not drawn)
915	Cc1cc(C)c(C)c(S(=O)(=O)Nc2ccc3c(c2)OCO3)c1C
687	CC(C)NC(=O)c1ccc(-c2nc3cc(NS(=O)(=O)Cc4cccc(F)c4)ccc3n2C)cc1
898	O=C(Cn1c(=O)oc2ccc(Cl)cc21)N1CCc2ccccc21
1210	C=CCN1C(=O)COc2ccc(-c3csc(NC(=O)CCC4CCCCC4)n3)cc21
785	COc1ccc(C(F)(F)F)cc1NC(=O)CCCSc1ccc(NC(C)=O)nn1
845	O=C(NCCc1ccccc1)c1nnc(-c2ccc(S(=O)(=O)N3CCOCC3)cc2)o1
930	CC(C)c1csc(-c2csc(S(=O)(=O)NCc3ccc(N(C)C)cc3)c2)n1
670	Cc1nn(-c2ccccc2)c2nc(N3CCCC(C(=O)NCCN4CCOCC4)C3)sc12 (stereo not drawn)
698	O=C(c1ccc(F)cc1F)N1CCC2(CC1)OCC(C(=O)N1CCCC1)N2C(=O)c1ccccc1 (stereo not drawn)
701	COc1cc(C2=NN(C(C)=O)C(c3cccnc3)O2)cc(OC)c1OC (stereo not drawn)
565	Cc1oc2ncn(CC(=O)N3CCN(c4ccccn4)CC3)c(=O)c2c1C
856	O=C(C1=NN(Cc2cccc(Cl)c2)c2ccccc2S1(=O)=O)N1CCOCC1
773	O=C(Cc1ccccc1Cl)NCCCn1cccc1
1290	Cc1ccc(NC(=O)c2c(C)sc3ncnc(N4CCCC(C)C4)c23)cc1F (stereo not drawn)

Further lines, the compound ahead of its results:

SMILES	RP-LC retention time [s]
COc1cc(OC)cc(N2C(=O)C3N=NN(Cc4nc(-c5ccc(OC(C)C)cc5)no4)C3C2=O)c1 (stereo not drawn)	1090
COc1ccc(C2C(C(=O)NC(C)C)c3cc(OC)c(OC)cc3C(=O)N2C)cc1OC (stereo not drawn)	662
COc1ccc(NC(=O)N2[C@H]3CC[C@@H]2c2cncnc2C3)c(OC)c1	639
Cc1nc(C)c(C(=O)N/N=C/c2ccc(N(CCCl)CCCl)cc2)s1	942
CCCCNC(=O)Cn1nc2c3cc(-c4ccc(F)cc4)nn3ccn2c1=O	812
CCn1nc(N2CCCC(NC(=O)Cn3c(=O)oc4ccccc43)C2)ccc1=O (stereo not drawn)	707
O=C(Nc1ccccc1)N(Cc1nnc2n1CCCCC2)c1ccc2c(c1)OCO2	703
COc1cc2c(cc1OC)C(C(=O)N1CCN(C)CC1)C(c1ccc(SC)cc1)N(C)C2=O (stereo not drawn)	612
Cc1cc(C)nc(Nc2nc(-c3ccccc3)c3ccccc3n2)n1	709
Cc1ccc(NC(=O)C2CCN(S(C)(=O)=O)c3ccccc3O2)cc1 (stereo not drawn)	892
Cc1ccc(CNC(=O)Nc2cc3c(cc2N2CCCCC2)n(C)c(=O)n3C)cc1	610
CCCNC(=O)C1CCCN(c2nc3ncn(CC(=O)Nc4cccc(C(C)C)c4)c(=O)c3s2)C1 (stereo not drawn)	802
Cc1ncn(CC(=O)Nc2ccccc2Cl)c(=O)c1C	668
Cc1cc(C)n(CC(=O)N(C)CC2(C)CCOCC2)n1	612
CCNC(=O)Nc1ccc(OCC(=O)NCc2cc(OC)cc(OC)c2)nc1	691
CCN1CCN(C(=O)C2CCN(S(=O)(=O)c3cc(C(=O)N4CCCC4)n(C)c3)CC2)CC1	567
CCOc1ccc(-c2nc(CN3CCN(C(=O)NC4CCCC4)CC3)c(C)o2)cc1	703
O=C(Nc1ccc(F)c(Cl)c1)C1CCCN(c2ncc(-c3ccc(F)cc3)cn2)C1 (stereo not drawn)	1230
O=C(c1ccoc1)N1CCC(F)(C(=O)NC2CC2)CC1	569
COc1ccc(C)cc1NS(=O)(=O)c1cc(-c2cc(C(F)(F)F)on2)sc1C	1210
COCCCNC(=O)C1CCC(=O)N(c2ccc(OC)cc2)C1c1ccc(F)cc1 (stereo not drawn)	609
CCCc1nc(-c2c(C)cc(C)nc2NC(=O)c2ccc(F)cc2F)no1	895
COc1ccc(-c2noc(CN3C(=O)COc4ccccc43)n2)c(OC)c1	887
Cc1ncc2c(n1)C[C@@H]1CC[C@H]2N1C(=O)c1ccc2c(c1)OCO2	639
COc1ccc(-c2cc(NCCc3ccc(OC)c(OC)c3)ncn2)cc1	563
COc1ccc(C(C)NC(=O)Cn2c(=O)n(-c3ccccc3)c3ncccc32)cc1OC (stereo not drawn)	741

SMILES	RP-LC retention time [s]
O=C(Nc1nccnc1C(=O)NCc1cccnc1)c1ccccc1	584
CS(=O)(=O)N1CCC(C(=O)N2CC(c3nc(-c4ccccn4)no3)C2)CC1	579
CCCCOc1ccc(-c2cc3c(N4CCN(c5ccccn5)CC4)nccn3n2)cc1	822
COc1ccc2c(c1)CC(C(=O)NCc1ccc(OC)cc1OC)CO2 (stereo not drawn)	894
CC1CCc2ccccc2N1C(=O)c1cccs1 (stereo not drawn)	913
CCSc1nnc(NC(=O)c2csc(Nc3cccnc3)n2)s1	588
CCc1ccc(CNC(=O)C2CCN(Cc3cn(C)c4ccc(OC)cc34)CC2)cc1	749
CCOC(=O)c1nc(NCC2CCN(Cc3ccccc3F)CC2)c2ccccc2n1	598
O=C(c1ccc2c(c1)OCO2)N1CCN(c2cc(-c3cccs3)[nH]n2)CC1	732
COc1cccc(-n2c(=O)c3sccc3n(Cc3nc(-c4ccc(F)cc4)no3)c2=O)c1	952
Cc1ccc2ncn(C3CCN(C(=O)Nc4ccc(F)cc4)CC3)c(=O)c2c1	765
O=C(NCC1CCS(=O)(=O)C1)c1cc(-c2ccccc2)on1 (stereo not drawn)	1010
O=C(Cn1ncn2nc(-c3cccs3)cc2c1=O)N1CCN(c2ccccn2)CC1	622
Cn1cc(-c2ccncc2)cc1C(=O)NCc1ccc(Br)cc1	662
O=C(NCc1ccco1)C1CCN(c2cc(N3CCCCC3)ncn2)CC1	632
CN1CCN(C(=O)c2csc(N3CCN(c4ccc(F)cc4)CC3)n2)CC1	643
O=C(COc1ccc(F)cc1)N1CC(Oc2cccc(-c3nc(-c4ccccc4)no3)c2)C1	1190
Cc1ccc(Cl)cc1N(C)C(=O)Cn1cnc2nc3c(cc2c1=O)CCCC3	809
COc1ccc(Oc2cc3c(cc2NS(=O)(=O)c2ccc(OC)c(OC)c2)n(C)c(=O)n3C)cc1	821
COCc1nc2c(N)cccn2n1	569
COc1c(C(=O)Nc2ccc(N3CCOCC3)cc2)sc2ccc(Cl)cc12	1110
Cc1ccn2c(NC(=O)c3ccc4ccccc4c3)c(-c3ccccc3)nc2c1	747
COc1ccc(N2CC(c3nc(-c4cccc(C(F)(F)F)c4)no3)CC2=O)cc1OC (stereo not drawn)	966
CC(C)Oc1ccccc1CN1CCC2(CC1)CN(C)CC2c1nnc(C(C)C)o1 (stereo not drawn)	569
CCOC(=O)C1=C(CN2CCN(C(C)CC)CC2)NC(=O)NC1c1ccc(OC(C)C)cc1 (stereo not drawn)	668
CC(C)n1c(N2CCN(C(=O)c3ccc(F)c(F)c3)CC2)cc(=O)n(C(C)C)c1=O	867
